Values of other authors, collected in US20230013403A1, “COMPOSITIONS COMPRISING HUMAN MILK OLIGOSACCHARIDES FOR USE IN A SUBJECT TO SUPPORT LANGUAGE DEVELOPMENT” (SOCIETE DES PRODUITS NESTLE S.A., priority 2019, published 2023).

System: rodents
Details: chronic oral administration

2′ fucosyllactose [2′FL]
learning and working memory functions of treated animals: significantly better
